Test results: US20250388560A1, “AROMATIC COMPOUND AND USE THEREOF” (HITGEN INC., priority 2023, published 2025)

Molecular target: TRIM21 protein (Homo sapiens (Human), UniProt P19474)
Assay: SPR binding assay (Biacore 8K) of compounds to immobilised TRIM21 protein
Conditions: 25° C., steady state affinity model (1:1 binding model), read-out: TRIM21 Kd Test Value
Procedure: The protein fixation buffer, the running buffer A and the running buffer B were prepared and filtered through a […] membrane prior to use.
A surface of a CM5 chip was washed for three times with 50 mM NaOH at a flow rate of 60.0 μL/min and 60 seconds per wash. […] The CM5 chip was activated for 420 s at a flow rate of 6.0 μL/min. A strep tactin XT fixation buffer fixation built in the twin strep tag capture kit was used to prepare a 50.0 µg/mL Strep tactin XT. The Strep tactin XT was injected at a flow rate of 5.0 μL/min for 600 s. After injection of […], 1 M ethanolamine from the amine coupling kit was injected at a flow rate of 6.0 μL/min for 7 min to close the surface of the CM5 chip.
The running buffer A was used as the protein fixation buffer. The protein fixation buffer and the TRIM21 protein were mixed to prepare a 40.0 µg/mL mixed solution. The 40.0 µg/mL mixed solution was injected at flow rate of 5.0 μL/min for 600 s, and the TRIM21 protein was captured on the CM5 chip through Strep tactin XT.
A compound to be tested was diluted with 100% DMSO to a concentration that was 100 times a required final concentration and mixed evenly, and […] of such solution was added into […] of the running buffer A, followed by centrifugation at 15,000 rpm for 5 min to obtain an X compound solution contained with 1% DMSO.
The X compound was subjected to 8-point, 2-fold serial dilutions with the running buffer B, starting from an initial concentration. The diluted X compound was transferred into the 96-well plate for sample injection.
A Biacore 8K Control software was started, and tests were run in a 25° C. environment. During program running, the running buffer B was used at a flow rate of 30.0 μL/min. The running buffer B was injected for three times to complete balance. […] An injection needle was cleaned with 50% DMSO after each injection.
A response value of binding of the X compound and the TRIM21 protein was corrected after deducting a reference channel and 0 concentration. A binding affinity Kd was matched by a steady state affinity model (1:1 binding model) through the Biacore Insight Evaluation Software.
The binding affinities between X compounds of the embodiments of the present disclosure were tested according the above method.

TRIM21 protein, sequence (P19474 whole entry, species assumed): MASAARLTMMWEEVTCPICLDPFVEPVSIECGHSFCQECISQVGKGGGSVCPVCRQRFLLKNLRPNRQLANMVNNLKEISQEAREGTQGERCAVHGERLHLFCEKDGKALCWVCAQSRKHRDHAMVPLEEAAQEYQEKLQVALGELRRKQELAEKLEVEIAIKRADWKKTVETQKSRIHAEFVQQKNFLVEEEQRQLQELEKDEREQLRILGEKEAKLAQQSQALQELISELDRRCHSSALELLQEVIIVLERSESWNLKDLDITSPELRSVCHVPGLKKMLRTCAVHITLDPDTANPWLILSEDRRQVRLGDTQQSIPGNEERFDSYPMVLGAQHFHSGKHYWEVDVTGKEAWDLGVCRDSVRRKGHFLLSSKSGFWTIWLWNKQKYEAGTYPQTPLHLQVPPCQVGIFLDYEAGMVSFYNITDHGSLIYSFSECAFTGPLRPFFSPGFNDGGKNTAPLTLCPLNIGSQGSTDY

| Kd [nM] | Structure (SMILES) |
| --- | --- |
| 10 to 100 | CN(CC1CCCCC1)C(=O)c1ccc(-c2ccc(F)cc2C2CC2)cc1S(C)(=O)=O [Compound 41] |
| 1000 to 10000 | COc1ccccc1-c1ccc(C(=O)N(C)[C@H](C)C2CCCC2)c(S(C)(=O)=O)c1 [Compound 33] |
| 100 to 1000 | CNC(=O)c1ccc(-c2ccccc2SC)cc1S(C)(=O)=O [Compound 1] |
| 100 to 1000 | Cc1ccccc1-c1ccc(C(=O)N(C)CC2CCCCC2)c(S(C)(=O)=O)c1 [Compound 38] |
| 100 to 1000 | CSc1ccccc1-c1ccc(C(=O)N(C)[C@H](C)C2CCCC2)c(S(C)(=O)=O)c1 [Compound 20] |
| 1000 to 10000 | CN(CC1CCCCC1)C(=O)c1ccc(-c2ccccc2F)cc1S(C)(=O)=O [Compound 45] |
| 100 to 1000 | COc1ccccc1-c1ccc(C(=O)N(C)CC2CCOCC2)c(S(C)(=O)=O)c1 [Compound 34] |
| 10 to 100 | COc1ccccc1-c1ccc(C(=O)N(C)Cc2cc[nH]c(=O)c2)c(S(C)(=O)=O)c1 [Compound 28] |
| 1000 to 10000 | CSc1ccccc1-c1ccc(C(=O)N(C)CC2CCCCC2(F)F)c(S(C)(=O)=O)c1 (stereo not shown) [Compound 5] |
| 100 to 1000 | CSc1ccccc1-c1ccc(C(=O)N(C)CC2CCOC2)c(S(C)(=O)=O)c1 (stereo not shown) [Compound 15] |
| 100 to 1000 | COc1cc(CN(C)C(=O)c2ccc(-c3ccccc3SC)cc2S(C)(=O)=O)ccn1 [Compound 16] |
| 100 to 1000 | CN(CC1CCCCC1)C(=O)c1ccc(-c2ccccc2C(C)(C)O)cc1S(C)(=O)=O [Compound 42] |
| 1000 to 10000 | CSc1ccccc1-c1ccc(C(=O)N(C)c2ccccc2)c(S(C)(=O)=O)c1 [Compound 12] |
| 10 to 100 | CSc1ccccc1-c1ccc(C(=O)N(C)Cc2ccc3c(c2)OCO3)c(S(C)(=O)=O)c1 [Compound 3] |
| 100 to 1000 | CSc1ccccc1-c1ccc(C(=O)N(C)[C@H](C)C2CC2)c(S(C)(=O)=O)c1 [Compound 19] |
| 1000 to 10000 | CSc1ccccc1-c1ccc(C(=O)N(C)C2CCCCC2)c(S(C)(=O)=O)c1 [Compound 9] |
| 1000 to 10000 | COc1ccccc1-c1ccc(C(=O)N(C)[C@H](C)C2CC2)c(S(C)(=O)=O)c1 [Compound 32] |
| 100 to 1000 | CSc1ccccc1-c1ccc(C(=O)N(C)Cc2ccsc2)c(S(C)(=O)=O)c1 [Compound 4] |
| 10 to 100 | CSc1ccccc1-c1ccc(C(=O)N(C)Cc2cc[nH]c2)c(S(C)(=O)=O)c1 [Compound 11] |

| Kd [nM] | Structure (SMILES) |
| --- | --- |
| 1000 to 10000 | COc1ccccc1-c1ccc(C(=O)N(C)CC2CCOC2)c(S(C)(=O)=O)c1 (stereo not shown) [Compound 25] |
| 1000 to 10000 | CSc1ccccc1-c1ccc(C(=O)N(C)Cc2cc[nH]c(=O)c2)c(S(C)(=O)=O)c1 [Compound 18] |
| 10 to 100 | COc1ccccc1-c1ccc(C(=O)N(C)Cc2cc[nH]c2)c(S(C)(=O)=O)c1 [Compound 29] |
| 1000 to 10000 | COc1ccccc1-c1ccc(C(=O)N(C)[C@H](C)C2CCC2)c(S(C)(=O)=O)c1 [Compound 24] |
| 100 to 1000 | CCC(CC)CN(C)C(=O)c1ccc(-c2ccccc2SC)cc1S(C)(=O)=O [Compound 10] |
| 1000 to 10000 | COc1cnccc1-c1ccc(C(=O)N(C)CC2CCCCC2)c(S(C)(=O)=O)c1 [Compound 43] |
| 1000 to 10000 | CN(CC1CCCCC1)C(=O)c1ccc(-c2ccc(F)cc2)cc1S(C)(=O)=O [Compound 54] |
| 100 to 1000 | CSc1ccccc1-c1ccc(C(=O)N(C)CC2CN(C(C)=O)C2)c(S(C)(=O)=O)c1 [Compound 13] |
| 100 to 1000 | COc1ccccc1-c1ccc(C(=O)N(C)CC2CCCCC2)c(S(C)(=O)=O)c1 [Compound 37] |
| 100 to 1000 | CSc1ccccc1-c1ccc(C(=O)N(C)CC2CCCCC2)c(S(C)(=O)=O)c1 [Compound 2] |
| 100 to 1000 | CCc1ccccc1CN(C)C(=O)c1ccc(-c2ccccc2SC)cc1S(C)(=O)=O [Compound 8] |
| 1000 to 10000 | COc1ccccc1-c1ccc(C(=O)N(C)CC2COC2)c(S(C)(=O)=O)c1 [Compound 30] |
| 10 to 100 | COc1cc(CN(C)C(=O)c2ccc(-c3ccccc3OC)cc2S(C)(=O)=O)ccn1 [Compound 27] |
| 100 to 1000 | CSc1ccccc1-c1ccc(C(=O)N(C)[C@H](C)C2CCC2)c(S(C)(=O)=O)c1 [Compound 14] |
| 100 to 1000 | CC(C)c1ccccc1-c1ccc(C(=O)N(C)CC2CCCCC2)c(S(C)(=O)=O)c1 [Compound 46] |
| 100 to 1000 | CN(CC1CCCCC1)C(=O)c1ccc(-c2ccccc2C(F)(F)F)cc1S(C)(=O)=O [Compound 39] |
| 1000 to 10000 | COc1ccccc1-c1ccc(C(=O)N(C)C(C)C2COC2)c(S(C)(=O)=O)c1 (stereo not shown) [Compound 31] |
| 10 to 100 | CSc1ccccc1-c1ccc(C(=O)N(C)CC2CCOCC2)c(S(C)(=O)=O)c1 [Compound 23] |

| Structure (SMILES) | Kd [nM] |
| --- | --- |
| COc1ccccc1-c1ccc(C(=O)N(C)CC2CCC(O)CC2)c(S(C)(=O)=O)c1 (stereo not shown) [Compound 35] | 100 to 1000 |
| COc1cc(F)ccc1-c1ccc(C(=O)N(C)CC2CCCCC2)c(S(C)(=O)=O)c1 [Compound 52] | 1 to 10 |
| CSc1ccccc1-c1ccc(C(=O)N(C)CC2(F)CCCCC2)c(S(C)(=O)=O)c1 [Compound 6] | 100 to 1000 |
| COc1ccccc1-c1ccc(C(=O)N(C)CC2CN(C(C)=O)C2)c(S(C)(=O)=O)c1 [Compound 26] | > 10000 |
| CSc1ccccc1-c1ccc(C(=O)N(C)Cc2cnoc2)c(S(C)(=O)=O)c1 [Compound 7] | 100 to 1000 |
| CN(CC1CCCCC1)C(=O)c1ccc(-c2cccc3ccoc23)cc1S(C)(=O)=O [Compound 47] | > 10000 |
